Measured values published in patent publication US20230174556A1, “COMPOUNDS AS PROTEIN KINASE INHIBITORS” (Fochon Biosciences, Ltd., priority 2020, published 2023).

Tested on: OCI-LY10 (PI3Kδ dependent) cells
Assay: OCI-LY10 cell proliferation assay (MTS)
Format: cell-based
Details: Homo sapiens, OCI-Ly10, 72 h, inhibition of OCI-LY10 cells proliferation, 72 h incubation, MTS readout at 490 nm
Experimental: MTS testing kit was purchased from Promega (Madison, WI, USA). The RPMI-1640, Fetal bovine serum and Penicillin-Streptomycin were purchased from BI (Biological Industries, Beit Haemek, Israel). Dimethyl sulfoxide (DMSO) was purchased from Sigma (St. Louis., MO, USA). OCI-LY10 cells were cultured in RPMI1640 supplemented with Penicillin-Streptomycin and 10% FBS.
To investigate whether a compound is able to inhibit the activity of PI3Kδ in cells, a mechanism-based assay using OCI-LY10 (PI3Kδ dependent) cells was developed. In this assay, inhibition of PI3Kδ was detected by the inhibition of OCI-LY10 cells proliferation. Cells were plated into 96-well plates at a density of 10000 cells/well. Plates were incubated at 37° C., with 5 % CO2 for 4 h. Compounds were serially diluted and added to the plates with the final compound concentrations as 10000, 3333.3, 1111.1, […], 123.5, 41.2, 13.7, 4.6 and 1.5 nM. Plates were incubated at 37° C., with 5 % CO2 for 72 h. 20 µl MTS was added into each well and the plates were incubated at 37° C., with 5 % CO2 for exactly 2 h. The absorbance was measured by a microplate reader at 490 nm. IC50 was calculated using GraphPad Prism 5.0 software.

Point of comparison: `Cc1csc2cc([C@H](C)n3nc(-c4cnc(OC(C)C)c(F)c4)c4c(N)ncnc43)c(-c3cccc(F)c3)c(=O)n12` [Example 21, (S)-7-(1-(4-amino-3-(5-fluoro-6-isopropoxypyridin-3-yl)-1H-pyrazolo[3,4-d]pyrimidin-1-yl)ethyl)-6-(3-fluorophenyl)-3-methyl-5H-thiazolo[3,2-a]pyridi n-5-one], IC50 1 nM. Against it:
- Cc1csc2cc([C@H](C)n3nc(-c4ccc(OC(F)F)c(F)c4)c4c(N)ncnc43)c(-c3cccc(F)c3)c(=O)n12 [Example 14, (S)-7-(1-(4-amino-3-(4-(difluoromethoxy)-3-fluorophenyl)-1H-pyrazolo[3,4-d]pyrimidin-1-yl)ethyl)-6-(3-fluorophenyl)-3-methyl-5H-thiazolo[3,2-a]pyrid in-5-one] — the same, 1 nM
- CC(C)Oc1ccc(-c2nn([C@@H](C)c3cc4scc(Cl)n4c(=O)c3-c3ccccc3)c3ncnc(N)c23)cc1F [Example 4, (S)-7-(1-(4-amino-3-(3-fluoro-4-isopropoxyphenyl)-1H-pyrazolo[3,4-d]pyrimidin-1-yl)ethyl)-3-chloro-6-phenyl-5H-thiazolo[3,2-a]pyridin-5-one] — the same, 1 nM
- Cc1csc2cc([C@H](C)n3nc(-c4ccc(OC(C)C)nc4)c4c(N)ncnc43)c(-c3cccc(F)c3)c(=O)n12 [Example 19, (S)-7-(1-(4-amino-3-(6-isopropoxypyridin-3-yl)-1H-pyrazolo[3,4-d]pyrimidin-1-yl)ethyl)-6-(3-fluorophenyl)-3-methyl-5H-thiazolo[3,2-a]pyridin-5-one] — the same, 1 nM
- C[C@@H](c1cc2scc(Cl)n2c(=O)c1-c1ccccc1)n1nc(-c2ccc(OC3CC3)c(F)c2)c2c(N)ncnc21 [Example 13, (S)-7-(1-(4-amino-3-(4-cyclopropoxy-3-fluorophenyl)-1H-pyrazolo[3,4-d]pyrimidin-1-yl)ethyl)-3-chloro-6-phenyl-5H-thiazolo[3,2-a]pyridin-5-one] — 15-fold higher, 15 nM
- C[C@@H](c1cc2scc(Cl)n2c(=O)c1-c1cccc(F)c1)n1nc(-c2ccc(OC3CC3)c(F)c2)c2c(N)ncnc21 [Example 12, (S)-7-(1-(4-amino-3-(4-cyclopropoxy-3-fluorophenyl)-1H-pyrazolo[3,4-d]pyrimidin-1-yl)ethyl)-3-chloro-6-(3-fluor ophenyl)-5H-thiazolo[3,2-a]pyridin-5-one] — 18-fold higher, 18 nM
- COc1ccc(-c2nn([C@@H](C)c3cc4scc(Cl)n4c(=O)c3-c3cccc(F)c3)c3ncnc(N)c23)cc1NS(C)(=O)=O [Example 45, (S)-N-(5-(4-amino-1-(1-(3-chloro-6-(3-fluorophenyl)-5-oxo-5H-thiazolo[3,2-a]pyridin-7-yl)ethyl)-1H-pyrazolo[3,4-d]pyrimidin-3-yl)-2-methoxyphenyl)m ethanesulfonamide] — 41-fold higher, 41 nM
- Cc1csc2cc([C@H](C)n3nc(-c4ccc(OC(C)C)nc4)c4c(N)ncnc43)c(-c3ccccc3)c(=O)n12 [Example 18, (S)-7-(1-(4-amino-3-(6-isopropoxypyridin-3-yl)-1H-pyrazolo[3,4-d]pyrimidin-1-yl)ethyl)-3-methyl-6-phenyl-5H-thi azolo[3,2-a]pyridin-5-one] — the same, 1 nM
- COc1ncc(-c2nn([C@@H](C)c3cc4scc(Cl)n4c(=O)c3-c3cccc(F)c3)c3ncnc(N)c23)cn1 [Example 104, (S)-7-(1-(4-amino-3-(2-methoxypyrimidin-5-yl)-1H-pyrazolo[3,4-d]pyrimidin-1-yl)ethyl)-3-chloro-6-(3-fluorophenyl)-5H-thiazolo[3,2-a]pyridin-5-one] — 64-fold higher, 64 nM
- Cc1csc2nc([C@H](C)n3nc(-c4ccc(OC(C)C)c(F)c4)c4c(N)ncnc43)c(-c3ccccc3)c(=O)n12 [Example 8, (S)-7-(1-(4-amino-3-(3-fluoro-4-isopropoxyphenyl)-1H-pyrazolo[3,4-d]pyrimidin-1-yl)ethyl)-3-methyl-6-phenyl-5H -thiazolo[3,2-a]pyrimidin-5-one] — 6-fold higher, 6 nM

Same assay, conditions: inhibition of OCI-LY10 cells proliferation, 72 h incubation, MTS readout at 490 nm

Point of comparison: `Cc1csc2nc([C@H](C)n3nc(-c4ccc(OC(C)C)c(C#N)c4)c4c(N)ncnc43)c(-c3cccc(F)c3)c(=O)n12` [Example 101, (S)-5-(4-amino-1-(1-(6-(3-fluoropheny 1)-3-methyl-5-oxo-5H-thiazolo[3,2-α]pyrimidin-7-yl)ethyl)-1H-pyrazolo[3,4-d]pyrimidin-3-yl)-2-isopropoxybenzon itrile], IC50 18 nM. Against it:
- Cc1csc2cc([C@H](C)n3nc(-c4ccc(OC(C)C)c(C#N)c4)c4c(N)ncnc43)c(-c3cccc(F)c3)c(=O)n12 [Example 83, (S)-5-(4-amino-1-(1-(6-(3-fluorophenyl)-3-methyl-5-oxo-5H-thiazolo[3,2-α]pyridin-7-yl)ethyl)-1H-pyrazolo[3,4-d]pyrimidin-3-yl)-2-isopropoxybenzonitrile] — 18-fold lower, 1 nM
- COc1ncc(-c2nn([C@@H](C)c3cc4scc(Cl)n4c(=O)c3-c3ccccc3)c3ncnc(N)c23)cc1NS(C)(=O)=O [Example 78, (S)-N-(5-(4-amino-1-(1-(3-chloro-5-oxo-6-phenyl-5H-thiazolo[3,2-α]pyridin-7-yl)ethyl)-1H-pyrazolo[3,4-d]pyrimidin-3-yl)-2-methoxypyridin-3-yl)metha nesulfonamide] — 6-fold lower, 3 nM
- CC(C)Oc1ccc(-c2nn([C@@H](C)c3cc4scc(Cl)n4c(=O)c3-c3ccccc3)c3ncnc(N)c23)cn1 [Example 86, (S)-7-(1-(4-amino-3-(6-isopropoxypyridin-3-yl)-1H-pyrazolo[3,4-d]pyrimidin-1-yl)ethyl)-3-chloro-6-phenyl-5H-thia zolo [3,2-α] pyridin-5-one] — 9-fold lower, 2 nM
- Cc1csc2cc([C@H](C)n3nc(-c4cnc(OC(C)C)nc4)c4c(N)ncnc43)c(-c3cccc(F)c3)c(=O)n12 [Example 89, (S)-7-(1-(4-amino-3-(2-isopropoxypyrimidin-5-yl)-1H-pyrazolo[3,4-d]pyrimidin-1-yl)ethyl)-6-(3-fluorophenyl)-3-methyl-5H-thiazolo[3,2-α]pyridin-5-one] — 4.1-fold higher, 73 nM
- (S)-N-(5-(4-amino-1-(1-(3-methyl-5-o xo-6-phenyl-5H-thiazolo[3,2-α]pyridin -7-yl)ethyl)-1H-pyrazolo[3,4-d]pyrimi din-3-yl)-2-methoxypyridin-3-yl)meth anesulfonamide [Example 76] — 18-fold lower, 1 nM
- C[C@@H](c1cc2scc(Cl)n2c(=O)c1-c1cccc(F)c1)n1nc(-c2ccc(OC(F)F)c(F)c2)c2c(N)ncnc21 [Example 66, (S)-7-(1-(4-amino-3-(4-(difluoromethoxy)-3-fluorophenyl)-1H-pyrazolo[3,4-d]pyrimidin-1-yl)ethyl)-3-chloro-6-(3-fluorophenyl)-5H-thiazolo[3,2-α]pyrid in-5-one] — 3.6-fold lower, 5 nM
- CC(C)Oc1ccc(-c2nn([C@@H](C)c3cc4scc(Cl)n4c(=O)c3-c3ccccc3)c3ncnc(N)c23)cc1C#N [Example 84, (S)-5-(4-amino-l-(1-(3-chloro-5-oxo-6-phenyl-5H-thiazolo[3,2-α]pyridin-7-yl)ethyl)-1H-pyrazolo[3,4-d]pyrimidin-3-yl)-2-isopropoxy benzonitrile] — 18-fold lower, 1 nM
- Cc1csc2nc([C@H](C)n3nc(-c4cnc(OC(C)C)c(C#N)c4)c4c(N)ncnc43)c(-c3cccc(F)c3)c(=O)n12 [Example 106, (S)-5-(4-amino-1-(1-(6-(3-fluoropheny 1)-3-methyl-5-oxo-5H-thiazolo[3,2-α]pyrimidin-7-yl)ethyl)-1H-pyrazolo[3,4-d]pyrimidin-3-yl)-2-isopropoxynicotin onitrile] — 2.4-fold higher, 43 nM
- CC(C)Oc1ncc(-c2nn([C@@H](C)c3cc4scc(Cl)n4c(=O)c3-c3ccccc3)c3ncnc(N)c23)cn1 [Example 90, (S)-7-(1-(4-amino-3-(2-isopropoxypyrimidin-5-yl)-1H-pyrazolo[3,4-d]pyrimidin-1-yl)ethyl)-3-chloro-6-phenyl-5H-thiazolo[3,2-α]pyridin-5-one] — 2.6-fold lower, 7 nM
- Cc1csc2nc([C@H](C)n3nc(-c4cnc(OC(C)C)c(F)c4)c4c(N)ncnc43)c(-c3cccc(F)c3)c(=O)n12 [Example 105, (S)-7-(1-(4-amino-3-(5-fluoro-6-isopropoxypyridin-3-yl)-1H-pyrazolo[3,4-d]pyrimidin-1-yl)ethyl)-6-(3-fluorophenyl)-3-methyl-5H-thiazolo[3,2-α]pyrimidin-5-one] — 3.9-fold higher, 70 nM
- COc1ncc(-c2nn([C@@H](C)c3cc4scc(C)n4c(=O)c3-c3cccc(F)c3)c3ncnc(N)c23)cn1 [Example 103, (S)-7-(1-(4-amino-3-(2-methoxypyrimidin-5-yl)-1H-pyrazolo[3,4-d]pyrimidin-1-yl)ethyl)-6-(3-fluorophenyl)-3-met hyl-5H-thiazolo[3,2-α]pyridin-5-one] — within 1.5-fold, 22 nM
- CC(C)Oc1ncc(-c2nn([C@@H](C)c3cc4scc(Cl)n4c(=O)c3-c3ccccc3)c3ncnc(N)c23)cc1F [Example 94, (S)-7-(1-(4-amino-3-(5-fluoro-6-isopropoxypyridin-3-yl)-1H-pyrazolo[3,4-d]pyrimidin-1-yl)ethyl)-3-chloro-6-phenyl-5H-thiazolo[3,2-α]pyridin-5-one] — 1.7-fold higher, 30 nM
- C[C@@H](c1cc2scc(Cl)n2c(=O)c1-c1ccccc1)n1nc(-c2ccc(OC(F)F)c(F)c2)c2c(N)ncnc21 [Example 67, (S)-7-(1-(4-amino-3-(4-(difluoromethoxy)-3-fluorophenyl)-1H-pyrazolo[3,4-d]pyrimidin-1-yl)ethyl)-3-chloro-6-ph enyl-5H-thiazolo[3,2-α]pyridin-5-one] — 18-fold lower, 1 nM
